# Results from paper PMC13227277, “Targeting CIRP and IL-6R-mediated microglial inflammation to improve outcomes in intracerebral hemorrhage” (Journal of Advanced Research, 2025).
# Where two headings read alike, the source gives them in different places. No end group written: not given here.
# T1: recombinant human IL-6 receptor alpha (IL-6Rα) (human, UniProt P08887 20-365)
# T1 construct: Interleukin-6 receptor subunit alpha, human; UniProtKB P08887 is printed for the docking; also called rhIL-6Rα; rhIL-6R; source: recombinant
# T1 sequence (looked up): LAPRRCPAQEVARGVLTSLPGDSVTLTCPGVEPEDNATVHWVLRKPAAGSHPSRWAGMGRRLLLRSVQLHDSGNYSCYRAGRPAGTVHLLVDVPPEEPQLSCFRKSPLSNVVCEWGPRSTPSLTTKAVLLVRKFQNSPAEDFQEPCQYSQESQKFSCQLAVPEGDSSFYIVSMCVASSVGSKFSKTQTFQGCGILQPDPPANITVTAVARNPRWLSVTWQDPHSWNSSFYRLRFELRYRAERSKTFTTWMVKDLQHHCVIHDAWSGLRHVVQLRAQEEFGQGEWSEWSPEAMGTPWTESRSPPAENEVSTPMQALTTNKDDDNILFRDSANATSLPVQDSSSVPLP
# B1: Tat-CIRP-CMA peptide (peptide)
# peptide: YGRKKRRQRRRGRGFSRGGGDRGYGGKFERQKILDQRFFE
# notes: also called TCC; source: synthetic peptide (Heifei KS-V Peptide Biotechnology, China)
# B2: rmCIRP: recombinant mouse CIRP (rmCIRP, 1 μg/mL) (protein, UniProt P60824 1-172, looked up)
# Cold-inducible RNA-binding …: MASDEGKLFVGGLSFDTNEQALEQVFSKYGQISEVVVVKDRETQRSRGFGFVTFENIDDAKDAMMAMNGKSVDGRQIRVDQAGKSSDNRSRGYRGGSAGGRGFFRGGRSRGRGFSRGGGDRGYGGGRFESRSGGYGGSRDYYASRSQGGSYGYRSSGGSYRDSYDSYATHNE
# How the values were obtained:
# [1] = in the brain following ICH, increased BBB permeability
# [2] = system: microglia; assay: CCK-8 microglial viability; format: cell-based, mouse
# Excerpt: (§1) Primary cortical neurons were isolated from embryonic day 16–18 (E16–E18) C57BL/6 mouse embryos as previously described, and cultured in Neurobasal medium supplemented with B27 and GlutaMAX (Gibco).Primary microglial cells were isolated from the cortices of neonatal (day 1) C57BL/6J mice. After disinfection with 75 % ethanol, the skin and skull were removed, and the brains were placed in ice-cold HBSS. The meninges were peeled off, the cortex was collected, and the hippocampus was discarded. Tissues were digested with 0.25 % trypsin at 37 °C for 12 min, centrifuged at 1200 rpm for 5 min, and resuspended in complete medium. The suspension was transferred to a T75 flask with 15 mL of complete medium. After 14 days, microglial cells were harvested by shaking the flask at 270–280 rpm for 30 min, and the supernatant was collected. To induce phenotyping, microglial cells were treated with LPS (100 ng/mL) and IFN-γ (20 ng/mL) for 48 h to induce the M1 phenotype, or IL-4 (20 ng/mL) for 48 h to induce the M2 phenotype. […]
# Microglia were exposed to 1, 10 100 μM concentrations of TCC or TC and PBS respectively for 24 h, and cell viability was measured. […] Cell viability was assessed using the Cell Counting Kit-8 (C0038, Beyotime) according to the manufacturer’s protocol. Absorbance at 450 nm was measured to determine cell viability.
# [3] = system: microglia; assay: IL-6 release from CIRP-stimulated microglia, ELISA (TCC vs TC); format: cell-based, mouse; conditions: peptides 10 μM pre-treated 0.5 h, then rmCIRP 1 μg/mL 24 h, n = 3
# Procedure: To validate the effects of TCC and TC in vitro, microglial cells were pre-treated with the peptides (10 μM) for 0.5 h, followed by stimulation with recombinant mouse CIRP (rmCIRP, 1 μg/mL) for 24 h to establish an inflammation model.
# ELISA was used to quantify CIRP, MD2, IL-6, and TNF-α concentrations in blood and cerebrospinal fluid samples. Samples were processed and stored under standardized conditions to preserve protein integrity. Each target protein was measured using commercial ELISA kits, following the manufacturer’s instructions: Mouse CIRBP ELISA Kit (CSB-EL005440MO, CUSABIO), Mouse TNF-α ELISA Kit (EK282, Lianke Bio), Mouse IL-6 ELISA Kit (CSB-E04639m, CUSABIO), and Rat TNF-α ELISA Kit (EK382, Lianke Bio).
# After disinfection with 75 % ethanol, the skin and skull were removed, and the brains were placed in ice-cold HBSS. The meninges were peeled off, the cortex was collected, and the hippocampus was discarded. Tissues were digested with 0.25 % trypsin at 37 °C for 12 min, centrifuged at 1200 rpm for 5 min, and resuspended in complete medium. The suspension was transferred to a T75 flask with 15 mL of complete medium. After 14 days, microglial cells were harvested by shaking the flask at 270–280 rpm for 30 min, and the supernatant was collected. […] CIRP (1 μg/mL for 24 h) was added to the microglia, which were divided into PBS, CIRP, and CIRP + TCC groups. […]
# [4] = molecular target: T1, recombinant human IL-6 receptor alpha …; assay: SPR; human IL-6Rα immobilised on a CM5 chip; human CIRBP or TCC as analyte; conditions: both partners purified
# [5] = system: microglia; assay: Microglial phagocytosis of CFSE-labeled RBCs; format: cell-based, mouse; conditions: rmCIRP 24 h, then CFSE-labeled erythrocytes
# Excerpt: as §1, with “collected.” for “collected. To induce phenotyping, microglial cells were treated with LPS (100 ng/mL) and IFN-γ (20 ng/mL) for 48 h to induce the M1 phenotype, or IL-4 (20 ng/mL) for 48 h to induce the M2 phenotype.”
# The functional characteristics of microglial cells encompass not only the release of inflammatory cytokines but also their phagocytic activity. […] RBCs were labeled with either 0.5 μM or 5 μM CFSE, and immunofluorescence analysis determined that 5 μM CFSE was the optimal concentration for labeling (Fig. 7G). […]
# RBCs were isolated via density gradient centrifugation and labeled with CFSE before being stereotactically injected into the right striatum. […] Cell viability was assessed using a Fixable Viability Dye, and flow cytometric analysis was subsequently performed. […]
molecule,measurement,setting,value
YGRKKRRQRRRGRGFSRGGGDRGYGGKFERQKILDQRFFE [TCC],ability to cross the BBB,[1],effectively traverse the BBB
same,microglial viability,"[2]; 10 μM, 24 h, CCK-8, n = 3",did not affect microglial viability
YGRKKRRQRRRRFESRSGGYGGSRD [TC],microglial viability,[2],did not affect microglial viability
same,IL-6 release in culture supernatants,[3],reduced IL-6 release
B1,Kd,[4],4.12 nM
B2,"phagocytosis of RBCs, Cirbp^−/− vs WT microglia",[5],greater capacity to phagocytize CFSE-labeled erythrocytes compared to WT microglia
